Data published in PubChem BioAssay AID1963838 (Molecular Pharmacology Branch, DTP, NCI, 2024).
Several values for one entry are separate records, joined by “and”; a condition that tells them apart may be missing. Equal entries are not always repeated.

System: 855422-203-R-J1-PDC complex spheroid viability
Assay: Anticancer human tumor 855422-203-R-J1-PDC patient-derived bladder carcinoma cell line growth inhibition [POLQ]
Details: for viability, T/C: stronger effect = lower value
Experimental: Multicellular complex tumor spheroid response to Polymerase (POL) inhibitors (novobiocin, ART-558, RP6685) in combination with a variety of drugs and investigational agents in selected tumor cell lines
The POL inhibitors (novobiocin, ART-558, and RP6685) were evaluated both individually and in combination with standard of care and investigational anticancer small molecules within a complex spheroid model of solid tumors. . Complex spheroids include a stromal component modeled by human endothelial cells (HUVEC) and fibroblasts modeled by human mesenchymal stem cells (MSCs). The concentration ranges selected for each drug and investigational agent were based upon clinically achievable concentrations if the clinical Cmax of the agent was known.
Compounds. The drugs and investigational agents: novobiocin (NSC847541), ART-558 (NSC835418), RP-6685 (NSC848927), peposertib (NSC802822), ceralasertib (NSC780249), elimusertib (NSC800525), camonsertib (NSC841442), AZD-1390 (NSC803789), olaparib (NSC753686), talazoparib (NSC767125), rucaparib (NSC756644), sotorasib (NSC818433), MRTX-1133 (NSC836407), SN-38 (NSC673596), topotecan (NSC609699), epotoside (NSC141540), doxorubicin (NSC123127), gemcitabine (NSC613327), 5-fluorouracil (NSC19893), paclitaxel (NSC125973), vemurafenib (NSC761431), MSA-2 (NSC828583), SN-011 (NSC837082), adavosertib (NSC754352), prexasertib (NSC758257), carboplatin (NSC241240) and oxaliplatin (NSC266046), were obtained from the National Cancer Institute (NCI) Developmental Therapeutics Program Chemical Repository (21). The FDA-approved anticancer drug set is available from the Developmental Therapeutics Program at https://dtp.cancer.gov/organization/dscb/obtaining/. […] The stock solutions were prepared in dimethyl sulfoxide (DMSO, Sigma-Aldrich, St. Louis, MO, cat. D2650), except for the platinum compounds which were prepared in saline (Quality Biological, Gaithersburg, MD, cat. 114-055-101), at 800-fold the tested concentration and stored at -70 degrees C prior to their use. All drugs and investigational agents were tested over a range starting from a high concentration at or near the clinical Cmax and decreasing in half-log increments. If the clinical Cmax for an agent had not been determined, the highest concentration tested was 10 microM, except for SN-38, which was tested at a high concentration of 1 microM.
Cell Culture. All cells were maintained in an incubator at 37 degrees C and 5% CO2 with 95% humidity. The PDC lines were cultured according to standard operating procedures established by the NCI PDMR (https://pdmr.cancer.gov). Table 3 of the manuscript, lists the cell lines along with the number of the three cell types plated to form the mct-spheroids and media for tumor cell growth. After thawing, all PDC lines, except 997537-175-T-J1-PDC and 415267-285-R-J2-PDC, were cultured in Matrigel-coated flasks prepared with a working solution of 1X Ham's F-12 nutrient mix, without supplementation (Thermo Fisher Scientific, cat. 11765054), 100 U/mL penicillin-streptomycin (Thermo Fisher Scientific, cat. 15140122), and 2.5% Matrigel (Corning Inc., Corning, NY, cat. 354248) for the first three passages. The two PDC lines 997537-175-T-J1-PDC and 415267-285-R-J2-PDC were cultured on uncoated flasks. The 857933-349-R-J2-PDC line was cultured in 6C/Colon 1B media containing advanced DMEM/F-12 (Thermo Fisher Scientific, cat. 12634028), 10 mM HEPES (Thermo Fisher Scientific, cat. 15630080), 1X GlutaMAX supplement (Thermo Fisher Scientific, cat. 35050061), 0.1 mg/mL primocin (InvivoGen, San Diego, CA, cat. ant-pm-2), 10% defined fetal bovine serum, heat inactivated (HyClone Laboratories Inc., Logan, UT, cat. SH30070.03HI), 50% L-WRN conditioned media (ATCC, cat. CRL-3276), 1.25 mM N-Acetyl-L-cysteine (Sigma-Aldrich, cat. A9165), 10 mM nicotinamide (Sigma-Aldrich, cat. N0636), 1X B-27 supplement (Thermo Fisher Scientific, cat. 17504044), 1X N-2 supplement (Thermo Fisher Scientific, cat. […]
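Also: spheroids exposed to compounds for seven days before readout.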

## COc1cc2cc(C(=O)CCC(=O)O)sc2cc1OC
Compound 0.0316 µM
  viability, T/C: 93.5% and 102% and 106%
Compound 0.1 µM
  viability, T/C: 128% and 88.2% and 104%
Compound 0.316 µM
  viability, T/C: 98.3% and 108% and 107%
Compound 1 µM
  viability, T/C: 97.8% and 87.2% and 98.9%
Compound 3.16 µM
  viability, T/C: 111% (2×) and 106%
Compound 10 µM
  viability, T/C: 112% and 119% and 102%
Curve of compound
  IC50: > 10000 nM

## COc1ccc([C@@H](O)c2cc(-c3ncnc4cc(N5CCOCC5)ccc34)c(F)cc2Cl)nn1
Compound 0.0316 µM
  viability, T/C: 86.6% and 104% and 118%
Compound 0.1 µM
  viability, T/C: 103% and 107% and 96.5%
Compound 0.316 µM
  viability, T/C: 94.5% and 103% and 109%
Compound 1 µM
  viability, T/C: 87.2% and 91.5% and 88.8%
Compound 3.16 µM
  viability, T/C: 60.9% and 109% and 69.5%
Compound 10 µM
  viability, T/C: 32% and 58.2% and 37.4%
Curve of compound
  IC50: 4870 nM and > 10000 nM and 6350 nM

## O=C(Nc1ccc(O)c(NS(=O)(=O)c2ccc(F)cc2)c1)c1ccc(-c2ccccc2)cc1
Compound 0.0316 µM
  viability, T/C: 106% and 92.6% and 110%
Compound 0.1 µM
  viability, T/C: 118% and 99.2% and 113%
Compound 0.316 µM
  viability, T/C: 98.8% and 110% and 113%
Compound 1 µM
  viability, T/C: 112% and 108% and 97.7%
Compound 3.16 µM
  viability, T/C: 99.4% and 106% and 92.8%
Compound 10 µM
  viability, T/C: 74% and 70.5% and 45.6%
Curve of compound
  IC50: > 10000 nM and 9080 nM

## COc1cc(C2c3cc4c(cc3C(OC3OC5COC(C)OC5C(O)C3O)C3COC(=O)C23)OCO4)cc(OC)c1O (stereo not drawn) + COC1C(OC(N)=O)C(O)C(Oc2ccc3c(O)c(NC(=O)c4ccc(O)c(CC=C(C)C)c4)c(=O)oc3c2C)OC1(C)C
Curve of first compound, second compound 0.0316 µM
  IC50: 242 nM
Curve of first compound, second compound 0.1 µM
  IC50: 245 nM
Curve of first compound, second compound 0.316 µM
  IC50: 227 nM
Curve of first compound, second compound 1 µM
  IC50: 234 nM
Curve of first compound, second compound 3.16 µM
  IC50: 210 nM
Curve of first compound, second compound 10 µM
  IC50: 215 nM
Second compound 0.0316 µM, first compound 0.0316 µM
  viability, T/C: 99.4%
Second compound 0.0316 µM, first compound 0.1 µM
  viability, T/C: 99.7%
Second compound 0.0316 µM, first compound 0.316 µM
  viability, T/C: 35.1%
Second compound 0.0316 µM, first compound 1 µM
  viability, T/C: 11.9%
Second compound 0.0316 µM, first compound 3.16 µM
  viability, T/C: 8.5%
Second compound 0.0316 µM, first compound 10 µM
  viability, T/C: 5.28%
Second compound 0.1 µM, first compound 0.0316 µM
  viability, T/C: 95.2%
Second compound 0.1 µM, first compound 0.1 µM
  viability, T/C: 102%
Second compound 0.1 µM, first compound 0.316 µM
  viability, T/C: 36.2%
Second compound 0.1 µM, first compound 1 µM
  viability, T/C: 12.8%
Second compound 0.1 µM, first compound 3.16 µM
  viability, T/C: 7.81%
Second compound 0.1 µM, first compound 10 µM
  viability, T/C: 4.05%
Second compound 0.316 µM, first compound 0.0316 µM
  viability, T/C: 99.2%
Second compound 0.316 µM, first compound 0.1 µM
  viability, T/C: 103%
Second compound 0.316 µM, first compound 0.316 µM
  viability, T/C: 29.4%
Second compound 0.316 µM, first compound 1 µM
  viability, T/C: 13.3%
Second compound 0.316 µM, first compound 3.16 µM
  viability, T/C: 8.9%
Second compound 0.316 µM, first compound 10 µM
  viability, T/C: 5.06%
Second compound 1 µM, first compound 0.0316 µM
  viability, T/C: 107%
Second compound 1 µM, first compound 0.1 µM
  viability, T/C: 99.7%
Second compound 1 µM, first compound 0.316 µM
  viability, T/C: 32.2%
Second compound 1 µM, first compound 1 µM
  viability, T/C: 11.6%
Second compound 1 µM, first compound 3.16 µM
  viability, T/C: 7.12%
Second compound 1 µM, first compound 10 µM
  viability, T/C: 4.08%
Second compound 3.16 µM, first compound 0.0316 µM
  viability, T/C: 128%
Second compound 3.16 µM, first compound 0.1 µM
  viability, T/C: 85.9%
Second compound 3.16 µM, first compound 0.316 µM
  viability, T/C: 29.5%
Second compound 3.16 µM, first compound 1 µM
  viability, T/C: 12.7%
Second compound 3.16 µM, first compound 3.16 µM
  viability, T/C: 8.6%
Second compound 3.16 µM, first compound 10 µM
  viability, T/C: 4.59%
Second compound 10 µM, first compound 0.0316 µM
  viability, T/C: 111%
Second compound 10 µM, first compound 0.1 µM
  viability, T/C: 88.8%
Second compound 10 µM, first compound 0.316 µM
  viability, T/C: 29.9%
Second compound 10 µM, first compound 1 µM
  viability, T/C: 12.9%
Second compound 10 µM, first compound 3.16 µM
  viability, T/C: 7.13%
Second compound 10 µM, first compound 10 µM
  viability, T/C: 5.19%
